From patent US9914712B2, “Antibacterial thiazolecarboxylic acids” (priority 2013, dated 2018) come the findings set out here.

SMILES strings stand for the structures.

In one experiment the target is T1, VIM-2 (Escherichia coli, UniProt Q5U7L7).
T1 construct: made in house
Description: In vitro MBL inhibition assay, imipenem hydrolysis (VIM-2). The format is biochemical. As to conditions: Ki VIM-2, imipenem substrate, Ki from IC50 by Cheng-Prusoff, Km 9 μM. The protocol:
The MBL enzyme VIM-2 is produced and purified as disclosed in Borgianni et al, Antimicrobial Agents & Chemotherapy, (2010), 54(8), 3197-3204.
(§1) Reaction buffers were prepared in a UV-transparent 96-well microplate, which buffer contains 10 mM HEPES pH 7.5, 50 μM ZnSO4, 20 μg/mL BSA. An amount of 75 ng of protein was added to each well.
(§2) Spectrophometric assays are performed to determine NDM-1/VIM-2/IMP-1 carbapenemase activity using purified proteins (50 ng for NDM-1/VIM-2, 25 ng IMP-1) from NDM-1/VIM-2/IMP-1 expressing bacteria using […] of imipenem as substrate in 10 mM HEPES pH 7.5, 50 μM ZnSO4. MBL hydrolysis is measured at 299 nm for 10 minutes at 30° C. as the absorbance changes due to the opening of beta-lactam ring of the antibiotic.
(§3) The Ki values obtained for selected example compounds are shown in Table 3, where they are compared with the values for pyridine-2-carboxylic acid.

The target in a further experiment is T2, NDM-1 (Klebsiella pneumoniae, UniProt C7C422).
T2 construct: made in house
T2 sequence (C7C422 29-270 limits assumed): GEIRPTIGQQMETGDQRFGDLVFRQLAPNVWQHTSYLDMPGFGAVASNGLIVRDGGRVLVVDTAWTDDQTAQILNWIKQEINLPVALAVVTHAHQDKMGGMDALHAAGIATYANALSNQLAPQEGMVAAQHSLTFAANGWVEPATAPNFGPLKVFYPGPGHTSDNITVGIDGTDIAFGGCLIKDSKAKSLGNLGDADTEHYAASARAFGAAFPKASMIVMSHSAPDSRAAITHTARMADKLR
Description: In vitro MBL inhibition assay, imipenem hydrolysis (NDM-1). As to conditions: Ki NDM-1, imipenem substrate, Ki from IC50 by Cheng-Prusoff, Km 70 μM. The format is biochemical. The method, then: NDM-1 is produced and purified as disclosed in Yong et al, Antimicrobial Agents & Chemotherapy, (2009) 53(12), 5046-54.
as §1, §2, §3

Experiment [1] has as its system NTBC023 strain: Klebsiella pneumoniae producing VIM-1+SHV-5. The experiment in a line: MIC of meropenem in presence of the inhibitor, broth microdilution. Type of experiment: cell-based. The conditions noted are these: compound at 100 μM, 37° C., 18-20 h. The method, then: (§4) The minimal inhibitory concentration (MIC) of meropenem in presence of the inhibitor is routinely assessed against 3 representative clinical strains: • NTBC020 Strain: Escherichia coli producing NDM-1+TEM-1+CTX-M-15, (isolated in Australia in 2009); • NTBC023 strain: Klebsiella pneumoniae producing VIM-1+SHV-5, (isolated in France in 2002); • NTBC062 strain: Klebsiella pneumoniae producing IMP-1+TEM-1, (isolated in France in 2012);
(§5) The assay was performed according to the standard broth microdilution method described by the Clinical and Laboratory Standards Institute (CLSI-M7-A7—Methods for dilution antimicrobial susceptibility tests for bacteria that grow aerobically; Approved standard; CLSI, Wayne, Pa., USA. 2006). This method involves the use of small volumes of broth dispensed in sterile, plastic 96-wells microdilution plates. The compounds were tested at a concentration of 100 μM and controls included the susceptibility tests for the three selected strains without the compounds and for the two reference strains E. coli ATCC 25922 and Pseudomonas aeruginosa ATCC 27853 as Quality Controls.
(§6) From a stock solution at 20 mM in DMSO, compounds were prepared by diluting 0.04 mL of the compound solution in 0.04 mL of Mueller-Hinton (MH) broth (2-fold dilution). Then, 0.001 mL of the compound dilution was distributed in the 96-wells microdilution plates to give a final concentration of 100 μM for a final volume of 0.1 mL by well.
(§7) From a meropenem stock solution at 10 mg/ml in water, meropenem 2-fold serial dilutions were prepared in MH broth at twice the desired final concentrations, e.g from 512 to 0.0037 μg/ml. The 96-wells microdilution plates were then filled with 0.05 mL of the meropenem dilutions. For each susceptibility test, two wells were left free of antibiotic and filled with 0.05 mL of sterile MH broth to serve as growth controls.
(§8) The bacterial inoculum was prepared by direct colony suspension from a 24 h-agar plate in saline solution (NaCl 9 g/L). The suspension was adjusted to a 0.5 MacFarland turbidity standard (1-2×10^8 CFU/mL) and then diluted 1:100 in MH broth. 0.05 mL of the bacterial dilution was then inoculated to each well giving a final volume of 0.1 mL and a final bacterial concentration of approximately 5×10^5 CFU/mL.
(§9) Microdilution plates were incubated at 37° C. in an ambient air incubator for 18-20 h.
Background: Broth dilution looks for growth in wells or tubes with falling amounts of substance.

Experiment [2] has as its system NTBC020 Strain: Escherichia coli producing NDM-1+TEM-1+CTX-M-15. The experiment is described as above. Type of experiment: cell-based. As to conditions: compound at 100 μM, 37° C., 18-20 h. The method, then: as §4, §5, §6, §7, §8, §9
The subject of another experiment is NTBC039. The description is as above. The format is cell-based. The conditions noted are these: compound at 100 μM, 37° C., 18-20 h.
The target in a further experiment is T3, IMP-1 (Serratia marcescens, UniProt P52699).
T3 construct: made in house
T3 sequence (P52699 19-246, species assumed): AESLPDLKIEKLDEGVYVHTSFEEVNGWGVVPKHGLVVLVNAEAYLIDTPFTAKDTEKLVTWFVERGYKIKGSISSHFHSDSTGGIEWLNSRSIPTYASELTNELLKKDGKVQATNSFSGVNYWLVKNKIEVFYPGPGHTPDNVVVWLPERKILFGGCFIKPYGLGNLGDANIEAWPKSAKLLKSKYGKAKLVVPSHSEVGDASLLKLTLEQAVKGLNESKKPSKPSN
Description: In vitro MBL inhibition assay, imipenem hydrolysis (IMP-1). Type of experiment: biochemical. The conditions noted are these: Ki IMP-1, imipenem substrate, Ki from IC50 by Cheng-Prusoff, Km 25 μM. The protocol: The MBL enzyme IMP-1 is produced and purified as disclosed in Laraki et al, Antimicrobial Agents & Chemotherapy, (1999), 43(4), 902-906.
as §1, §2, §3

As a reminder, the Ki is the equilibrium dissociation constant of an inhibitor or competing ligand from its target. As for `N[C@@H](C(=O)N1CCC(c2ccc(S(=O)(=O)Nc3scnc3C(=O)O)cc2)CC1)c1ccccc1` [Compound 172, S-5-[[4-[1-(2-amino-2-phenyl-acetyl)-4-piperidyl]phenyl]sulfonylamino]thiazole-4-carboxylic acid], the Ki at VIM-2 is 50 nM; on NDM-1, 220 nM; at IMP-1 it was 760 nM. For the same molecule, the MIC of meropenem, strain NTBC023 in experiment [1] worked out at 8 µg/mL. For the same molecule, in experiment [2], the MIC of meropenem, strain NTBC020 came to 64 µg/mL. Further, in the experiment on NTBC039, the MIC of meropenem, strain NTBC039 turned out to be 8 µg/mL.
Turning to `N[C@@H](C(=O)N1CCC(c2ccc(S(=O)(=O)Nc3scnc3C(=O)O)cc2)CC1)c1ccccc1` [Compound 173, R-5-[[4-[1-(2-amino-2-phenyl-acetyl)-4-piperidyl]phenyl]sulfonylamino]thiazole-4-carboxylic acid], the inhibitory constant (Ki) on VIM-2 stood at 40 nM; on NDM-1 it was 180 nM; at IMP-1 it was 330 nM. For the same molecule, the MIC of meropenem, strain NTBC023 in experiment [1] came out at 8 µg/mL. The MIC of meropenem, strain NTBC020 in experiment [2] is 128 µg/mL. Moreover, in the experiment with NTBC039, the MIC of meropenem, strain NTBC039 came to 8 µg/mL.
For the molecule `O=C(O)c1ncsc1NS(=O)(=O)CC1CCOCC1` [Compound 111, 5-[(oxan-4-ylmethyl)sulfonamido]-1,3-thiazole-4-carboxylic acid], the results for the Ki at VIM-2, on NDM-1 and at IMP-1 were 220 nM, 2800 nM and 900 nM, respectively. Besides, the MIC of meropenem, strain NTBC023 in experiment [1] was 8 µg/mL. In experiment [2], the MIC of meropenem, strain NTBC020 came out at 4 µg/mL. Besides, the MIC of meropenem, strain NTBC039 with NTBC039 came out at 0.25 µg/mL.
`O=C(O)c1ncsc1NS(=O)(=O)c1csc2ccccc12` [Compound 41, 5-(1-benzothiophene-3-sulfonamido)-1,3-thiazole-4-carboxylic acid]: the Ki on VIM-2 was found to be 220 nM; on NDM-1 it was 670 nM; at IMP-1, 80 nM. In experiment [1], the MIC of meropenem, strain NTBC023 stood at 16 µg/mL. For the same molecule, in experiment [2], the MIC of meropenem, strain NTBC020 was 64 µg/mL. Besides, the MIC of meropenem, strain NTBC039 with NTBC039 is 4 µg/mL.
As for `O=C(O)c1ncsc1NS(=O)(=O)c1ccccc1` [Compound 1, 5-benzenesulfonamido-1,3-thiazole-4-carboxylic acid], the Ki came out at 320 nM on VIM-2, 1200 nM at NDM-1 and 80 nM at IMP-1. Moreover, the MIC of meropenem, strain NTBC023 in experiment [1] is 64 µg/mL. The MIC of meropenem, strain NTBC020 in experiment [2] was determined as 32 µg/mL. For the same molecule, the MIC of meropenem, strain NTBC039 in the experiment on NTBC039 was determined as 16 µg/mL.
Turning to `O=C(O)c1ncsc1NS(=O)(=O)c1ccc(OC2CCNC2)cc1` (centres unmarked) [Compound 163, 5-[4-(pyrrolidin-3-yloxy)phenylsulfonamido]-1,3-thiazole-4-carboxylic acid], the Ki on VIM-2 is 280 nM; on NDM-1 it was 370 nM; on IMP-1 it was 1000 nM. For the same molecule, the MIC of meropenem, strain NTBC023 in experiment [1] turned out to be 32 µg/mL. Besides, the MIC of meropenem, strain NTBC020 in experiment [2] was 16 µg/mL. Also, in the experiment with NTBC039, the MIC of meropenem, strain NTBC039 was 16 µg/mL.
Regarding `O=C(O)c1ncsc1NS(=O)(=O)c1ccc(N2CCCCC2)nc1` [Compound 138, 5-[6-(piperidin-1-yl)pyridin-3-ylsulfonamido]-1,3-thiazole-4-carboxylic acid], the Ki is 10 nM at VIM-2, 430 nM at NDM-1 and 130 nM at IMP-1. Moreover, in experiment [1], the MIC of meropenem, strain NTBC023 came out at 16 µg/mL. In addition, the MIC of meropenem, strain NTBC020 in experiment [2] was 32 µg/mL. Besides, the MIC of meropenem, strain NTBC039 in the experiment with NTBC039 was 1 µg/mL.
With `O=C(O)c1ncsc1NS(=O)(=O)Cc1cccnc1` [Compound 170, 5-(3-pyridylmethylsulfonylamino)thiazole-4-carboxylic acid], the Ki on VIM-2 amounted to 460 nM; at NDM-1 it was 4200 nM. For the same molecule, the MIC of meropenem, strain NTBC023 in experiment [1] was determined as 1 µg/mL. The MIC of meropenem, strain NTBC020 in experiment [2] was 16 µg/mL. Besides, in the experiment with NTBC039, the MIC of meropenem, strain NTBC039 was determined as 0.25 µg/mL.
For the molecule `O=C(O)c1ncsc1NS(=O)(=O)c1ccc(-n2cccn2)cc1` [Compound 94, 5-{[4-(1H-pyrazol-1-yl)phenyl]sulfonamido}-1,3-thiazole-4-carboxylic acid], in experiment [1], the MIC of meropenem, strain NTBC023 stood at 8 µg/mL. Besides, in experiment [2], the MIC of meropenem, strain NTBC020 was 16 µg/mL. In the experiment on NTBC039, the MIC of meropenem, strain NTBC039 is 4 µg/mL.
As to `O=C(O)c1ncsc1NS(=O)(=O)c1cccnc1` [Compound 67, 5-(pyridine-3-sulfonamido)-1,3-thiazole-4-carboxylic acid], in experiment [1], the MIC of meropenem, strain NTBC023 was 16 µg/mL. The MIC of meropenem, strain NTBC020 in experiment [2] came to 1 µg/mL. Also, the MIC of meropenem, strain NTBC039 with NTBC039 amounted to 8 µg/mL.
In the case of `O=C(O)c1ncsc1NS(=O)(=O)CC1CCCCC1` [Compound 69, 5-(cyclohexylmethyl)sulfonamido-1,3-thiazole-4-carboxylic acid], in experiment [1], the MIC of meropenem, strain NTBC023 came to 4 µg/mL. The MIC of meropenem, strain NTBC020 in experiment [2] amounted to 16 µg/mL. The MIC of meropenem, strain NTBC039 with NTBC039 worked out at 1 µg/mL.
